According to patent US20250154134A1, “COMPOUND AS FAK INHIBITOR AND USE THEREOF” (WIGEN BIOMEDICINE TECHNOLOGY (SHANGHAI) CO., LTD., priority 2022, published 2025):
pIC50: −log10 of the molar value.

Columns and labels:
FAK recombinant protein = FAK recombinant protein (Homo sapiens (Human), UniProt Q05397); assay: Inhibitory activity against FAK enzyme (HTRF, TK substrate); assay type: biochemical
Description: A compound serially diluted with DMSO was mixed with a FAK recombinant protein. After the mixture was left to stand at room temperature for 10 min, a biotin-labeled TK substrate (TK) and ATP were added. […] The inhibition percentage and IC50 of the compound were calculated compared to the DMSO control group.

PC3 cells [1] = assay: PC3 cell proliferation, 2D activity assay (Cell Titer-Lumi, 72 h); assay type: cell-based, human; conditions: Homo sapiens, PC-3, read-out: 2D inhibitory activity against PC3 cells IC50
Description: (§1) 2D activity assay: 1200 PC3 cells were seeded in a 96-well plate. After overnight adherence culture, A compound serially diluted was added. […] The growth of the cells was evaluated, and the IC50 of the compound inhibiting cell growth was calculated. 3D activity assay: PC3 cells were seeded in a 96-well plate at 1200 cells/well, and 3D culture was performed. 14 days after a compound serially diluted was added, the growth of the cells was measured. The inhibition percentage and IC50 of the compound were calculated compared to the DMSO control group.

PC3 cells [2] = assay: PC3 cell proliferation, 3D activity assay (3D culture, 14 days); assay type: cell-based, human; conditions: Homo sapiens, PC-3, 336 h, read-out: 3D inhibitory activity against PC3 cells IC50
Description: as §1

Sequence of FAK recombinant protein (Q05397 whole entry): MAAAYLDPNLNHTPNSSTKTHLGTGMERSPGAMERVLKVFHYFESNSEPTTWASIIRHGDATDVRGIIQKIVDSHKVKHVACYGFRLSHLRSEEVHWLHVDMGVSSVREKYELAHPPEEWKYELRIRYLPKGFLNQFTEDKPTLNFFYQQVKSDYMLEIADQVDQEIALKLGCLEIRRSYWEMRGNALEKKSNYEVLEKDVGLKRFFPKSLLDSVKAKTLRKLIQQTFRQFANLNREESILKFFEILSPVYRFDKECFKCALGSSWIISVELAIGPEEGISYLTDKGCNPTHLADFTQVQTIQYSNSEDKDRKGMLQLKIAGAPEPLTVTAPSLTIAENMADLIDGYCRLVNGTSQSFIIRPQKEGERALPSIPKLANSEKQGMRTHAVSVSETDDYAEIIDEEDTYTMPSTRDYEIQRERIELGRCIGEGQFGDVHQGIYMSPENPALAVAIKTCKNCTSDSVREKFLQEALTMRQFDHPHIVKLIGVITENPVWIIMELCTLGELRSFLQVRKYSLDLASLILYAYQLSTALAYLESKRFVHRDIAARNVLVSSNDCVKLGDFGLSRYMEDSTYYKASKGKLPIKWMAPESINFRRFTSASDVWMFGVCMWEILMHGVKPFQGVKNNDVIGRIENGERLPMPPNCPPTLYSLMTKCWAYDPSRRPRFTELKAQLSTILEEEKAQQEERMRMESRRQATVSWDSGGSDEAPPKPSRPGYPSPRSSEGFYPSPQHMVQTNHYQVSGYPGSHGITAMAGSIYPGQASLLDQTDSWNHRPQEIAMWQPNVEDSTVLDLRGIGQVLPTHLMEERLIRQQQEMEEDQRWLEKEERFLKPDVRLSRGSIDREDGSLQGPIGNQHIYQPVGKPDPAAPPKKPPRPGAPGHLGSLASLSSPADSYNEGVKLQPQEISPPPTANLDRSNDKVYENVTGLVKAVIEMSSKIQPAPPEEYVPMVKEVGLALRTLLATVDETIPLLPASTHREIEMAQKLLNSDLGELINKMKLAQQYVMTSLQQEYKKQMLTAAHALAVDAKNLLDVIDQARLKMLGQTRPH

Structure (SMILES)	pIC50 (FAK recombinant protein)	pIC50 (PC3 cells [1])	pIC50 (PC3 cells [2])
COc1cc(C(=O)NC2CCN(C)CC2)ccc1Nc1ncc(C#N)c(Oc2cccc3c2C(=O)N(C)C32CC2)n1 [Compound 192, 4-((5-cyano-4-((2′-methyl-3′-oxospiro[cyclopropane-1,1′-isoindolin]-4′-yl)oxy)pyrimidin-2-yl)amino)-3-methoxy-N-(1-methylpiperidin-4-yl)benzamide]	> 7.70	< 5.70	> 8.30
COc1cc(CN2CCN(C)CC2)ccc1Nc1ncc(Cl)c(Oc2cccc3c2C(=O)N(C)C32CC2)n1 [Compound 153, 4′-((5-chloro-2-((2-methoxy-4-((4-methylpiperazin-1-yl)methyl)phenyl)amino)pyrimidin-4-yl)oxy)-2′-methylspiro[cyclopropane-1,1′-isoindolin]-3′-one]	> 7.70	< 5.70	> 8.30
COc1cc(N2CC(N(C)C)C2)ccc1Nc1ncc(Cl)c(Oc2cccc3c2C(=O)N(C)C32CC2)n1 [Compound 159]	> 7.70	< 5.70	7.30 to 8.30
COc1cc(N2CCC3(CC2)CN(C)C3)c(F)cc1Nc1ncc(C(F)(F)F)c(Oc2cccc3c2C(=O)N(C)C32CC2)n1 [Compound 126]	> 7.70	< 5.70	> 8.30
COc1cc(C2CCN(C)CC2)ccc1Nc1ncc(Cl)c(Oc2cccc3c2C(=O)N(C)C32CC2)n1 [Compound 135, 4′-((5-chloro-2-((2-methoxy-4-(1-methylpiperidin-4-yl)phenyl)amino)pyrimidin-4-yl)oxy)-2′-methylspiro[cyclopropane-1,1′-isoindolin]-3′-one]	> 7.70	< 5.70	> 8.30
CN1CCC(N2C(=O)Cc3cc(Nc4ncc(C(F)(F)F)c(Oc5cccc6c5C(=O)N(C)C65CC5)n4)ccc32)CC1 [Compound 72]	> 7.70	< 5.70	> 8.30
COc1cc(N2CCN(C)CC2)c(F)cc1Nc1ncc(C#N)c(Oc2cccc3c2C(=O)N(C)C32CC2)n1 [Compound 201]	> 7.70	< 5.70	> 8.30
COc1cc(C(=O)NC2CCC3(CC2)CCN(C)C3)ccc1Nc1ncc(C(F)(F)F)c(Cc2cccc3c2C(=O)N(C)C32CC2)n1 (stereo not drawn) [Compound 106]	> 7.70	< 5.70	7.30 to 8.30
COc1cc(N2CCC3(CCN(C)CC3)C2=O)ccc1Nc1ncc(C(F)(F)F)c(Oc2cccc3c2C(=O)N(C)C32CC2)n1 [Compound 62]	> 7.70	< 5.70	7.30 to 8.30
COc1cc(N2CCC3(CCN(C)C3)C2)c(F)cc1Nc1ncc(Cl)c(Oc2cccc3c2C(=O)N(C)C32CC2)n1 (stereo not drawn) [Compound 150]	> 7.70	< 5.70	> 8.30
COc1cc(C(=O)NC2CCC3(CC2)CCN(C)C3)c(F)cc1Nc1ncc(C(F)(F)F)c(Oc2cccc3c2C(=O)N(C)C32CC2)n1 (stereo not drawn) [Compound 20]	> 7.70	< 5.70	> 8.30
COc1cc(C(=O)NC2CCC3(CC2)CN(C)C3)c(F)cc1Nc1ncc(C(F)(F)F)c(Oc2cccc3c2C(=O)N(C)C32CC2)n1 [Compound 10]	> 7.70	< 5.70	7.30 to 8.30
CCc1cc(C(=O)NC2CCN(C)CC2)ccc1Nc1ncc(C(F)(F)F)c(Oc2cccc3c2C(=O)N(C)C32CC2)n1 [Compound 50]	> 7.70	< 5.70	7.30 to 8.30
COc1cc(N2CC(N3C4CCC3CN(C)C4)C2)ccc1Nc1ncc(Cl)c(Oc2cccc3c2C(=O)N(C)C32CC2)n1 [Compound 161]	> 7.70	< 5.70	> 8.30
COc1cc(N2CCOCC2)ccc1Nc1ncc(C(F)(F)F)c(Cc2cccc3c2C(=O)N(C)C32CC2)n1 [Compound 112]	> 7.70	< 5.70	7.30 to 8.30
COc1cc(CN(C)C2CCN(C)CC2)c(F)cc1Nc1ncc(Cl)c(Oc2cccc3c2C(=O)N(C)C32CC2)n1 [Compound 156]	> 7.70	< 5.70	7.30 to 8.30
CCN1CCC(NC(=O)c2cc(OC)c(Nc3ncc(C(F)(F)F)c(Oc4cccc5c4C(=O)N(C)C54CC4)n3)cc2F)CC1 [Compound 41]	> 7.70	< 5.70	> 8.30
COc1cc(C2CCN(C)CC2)ccc1Nc1ncc(C#N)c(Oc2cccc3c2C(=O)N(C)C32CC2)n1 [Compound 198]	> 7.70	< 5.70	7.30 to 8.30
Cc1c(Nc2ncc(C(F)(F)F)c(Oc3cccc4c3C(=O)N(C)C43CC3)n2)nn2c1CCC2 [Compound 93]	> 7.70	< 5.70	7.30 to 8.30
[2H]C([2H])([2H])N1CCC(NC(=O)c2cc(OC)c(Nc3ncc(C(F)(F)F)c(Oc4cccc5c4C(=O)N(C)C54CC4)n3)cc2F)CC1 [Compound 40]	> 7.70	< 5.70	> 8.30
COc1cc(C(=O)NC2CCC3(CC2)CN(C)C3)ccc1Nc1ncc(C(F)(F)F)c(Cc2cccc3c2C(=O)N(C)C32CC2)n1 [Compound 103]	> 7.70	< 5.70	7.30 to 8.30

Structure (SMILES)	pIC50 (FAK recombinant protein)	pIC50 (PC3 cells [1])	pIC50 (PC3 cells [2])
COc1cc(N2CCN(C)CC2)ccc1Nc1ncc(C(F)(F)F)c(Cc2cccc3c2C(=O)N(C)C32CC2)n1 [Compound 111]	> 7.70	< 5.70	7.30 to 8.30
COc1cc(C(=O)NC2CCN(CS(C)(=O)=O)CC2)ccc1Nc1ncc(C(F)(F)F)c(Oc2cccc3c2C(=O)N(C)C32CC2)n1 [Compound 38]	> 7.70	< 5.70	7.30 to 8.30
COc1cc(C(=O)NC2CCN(C)CC2)c(-c2cnn(C)c2)cc1Nc1ncc(C(F)(F)F)c(Oc2cccc3c2C(=O)N(C)C32CC2)n1 [Compound 54]	> 7.70	< 5.70	> 8.30
COc1cc(C2CCN(C)CC2)c(F)cc1Nc1ncc(Br)c(Oc2cccc3c2C(=O)N(C)C32CC2)n1 [Compound 180]	> 7.70	< 5.70	7.30 to 8.30
COc1cc(C(=O)NC2CCn3cnnc3C2)ccc1Nc1ncc(C(F)(F)F)c(Oc2cccc3c2C(=O)N(C)C32CC2)n1 (stereo not drawn) [Compound 32]	> 7.70	< 5.70	7.30 to 8.30
COc1cc(C2=NOC3(CCN(C)CC3)C2)ccc1Nc1ncc(C(F)(F)F)c(Oc2cccc3c2C(=O)N(C)C32CC2)n1 [Compound 68]	> 7.70	< 5.70	< 7.30
COc1cc(C(=O)NC2CCn3ccnc3C2)ccc1Nc1ncc(C(F)(F)F)c(Oc2cccc3c2C(=O)N(C)C32CC2)n1 (stereo not drawn) [Compound 31]	> 7.70	< 5.70	7.30 to 8.30
COc1cc(C(=O)N2CC3(CCN(C)CC3)C2)ccc1Nc1ncc(C(F)(F)F)c(Oc2cccc3c2C(=O)N(C)C32CC2)n1 [Compound 55]	> 7.70	< 5.70	7.30 to 8.30
COc1cc(C(=O)NC2CCN(CC(N)=O)CC2)ccc1Nc1ncc(C(F)(F)F)c(Oc2cccc3c2C(=O)N(C)C32CC2)n1 [Compound 39]	> 7.70	< 5.70	> 8.30
COc1cc(N2C3CC2CN(C)C3)ccc1Nc1ncc(Cl)c(Oc2cccc3c2C(=O)N(C)C32CC2)n1 [Compound 164]	> 7.70	< 5.70	7.30 to 8.30
[2H]C([2H])([2H])N1CCC2(CC1)CC(NC(=O)c1ccc(Nc3ncc(C(F)(F)F)c(Oc4cccc5c4C(=O)N(C)C54CC4)n3)c(OC)c1)C2 [Compound 45]	> 7.70	< 5.70	> 8.30
COc1cc(C(=O)NC2CC3(CCN(C)CC3)C2)c(F)cc1Nc1ncc(Cl)c(Oc2cccc3c2C(=O)N(C)C32CCCC2)n1 [Compound 208]	> 7.70	< 5.70	< 7.30
COc1cc(N2CC3(CCN(C)CC3)C2)c(F)cc1Nc1ncc(Cl)c(Oc2cccc3c2C(=O)N(C)C32COC2)n1 [Compound 217]	> 7.70	< 5.70	7.30 to 8.30
COc1cc(N2CCN(C)CC2)c(F)cc1Nc1ncc(Br)c(Oc2cccc3c2C(=O)N(C)C32CC2)n1 [Compound 183]	> 7.70	< 5.70	7.30 to 8.30
COc1cc(N2CC3(CCN(C)CC3)C2)ccc1Nc1ncc(Cl)c(Oc2cccc3c2C(=O)N(C)C32CCCCC2)n1 [Compound 210]	> 7.70	< 5.70	< 7.30
COc1cc(N2CC3(CCN(C)CC3)C2)ccc1Nc1ncc(Cl)c(Oc2cccc3c2C(=O)N(C)C32COC2)n1 [Compound 216]	> 7.70	< 5.70	7.30 to 8.30
COc1cc(N2CC3(CCN(C)CC3)C2)c(F)cc1Nc1ncc(Cl)c(Oc2cccc3c2C(=O)N(C)C32CCOCC2)n1 [Compound 214]	> 7.70	< 5.70	< 7.30
COc1cc(C(=O)NC2CCC3(CC2)CCN(C)CC3)ccc1Nc1ncc(C(F)(F)F)c(Cc2cccc3c2C(=O)N(C)C32CC2)n1 [Compound 107]	> 7.70	< 5.70	< 7.30
COc1cc(C(=O)NC2CC3(CCN(C)CC3)C2)ccc1Nc1ncc(C(F)(F)F)c(Cc2cccc3c2C(=O)N(C)C32CC2)n1 [Compound 101, 3-methoxy-4-((4-((2′-methyl-3′-oxospiro[cyclopropane-1,1′-isoindolin]-4′-yl)methyl)-5-(trifluoromethyl)pyrimidin-2-yl)amino)-N-(7-methyl-7-azaspiro[3.5]nonan-2-yl)benzamide]	> 7.70	< 5.70	7.30 to 8.30
COc1cc(N2CCC(N3CCN(C)CC3)CC2)c(F)cc1Nc1ncc(Br)c(Oc2cccc3c2C(=O)N(C)C32CC2)n1 [Compound 181]	> 7.70	< 5.70	> 8.30
